This note sets out measurements from patent US11649255B2, “Indazoles as hematopoietic progenitor kinase 1 (HPK1) inhibitors and methods using same” (1st Biotherapeutics, Inc., priority 2020, dated 2023).

The structures appear in SMILES notation. Where two headings read alike, the source gives them in different places. A value given as a limit tells only on which side of the number the result lay.

The test system of assay [1] is human peripheral blood pan T cells. The assay is described as follows: IFNγ and IL-2 analysis of human peripheral pan T cells. In kind it is cell-based. As to conditions: T-cell, CD3/CD28 bead stimulation, 100 nM Prostaglandin E2, 24 hr. In outline: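 Human peripheral blood pan T cells (8×10^4) were preincubated 1 h with compounds plus 100 nM PGE2. They were then activated with anti-CD3/CD28 Dynabeads at a 1:3 cell:bead ratio. IFNγ and IL-2 were measured on a Meso Scale Discovery platform.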

Assay [2] addresses recombinant human HPK1 (Homo sapiens (Human), UniProt Q92918). The assay is described as follows: HPK1 kinase assay (ADP-Glo). The assay is classed as biochemical. As to conditions: 25 μM ATP, MBP substrate. In outline: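 Activity was read as ADP formed, detected by ADP-Glo luminescence after the reaction of 5 ng recombinant human HPK1 with MBP and ATP (stocks 0.5 μg/μl and 25 μM) for 40 min at 30 °C. Buffer was Tris pH 7.5 with MgCl2, BSA and DTT, with compound in 0.5% DMSO. IC50 came from inhibition curves.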

The mark [3] stands for this setting: IFNγ secretion, read-out: IFNγ (EC50).
Where [4] appears, read: IL-2 secretion, read-out: IL-2 (EC50).

recombinant human HPK1, sequence (Q92918 whole entry): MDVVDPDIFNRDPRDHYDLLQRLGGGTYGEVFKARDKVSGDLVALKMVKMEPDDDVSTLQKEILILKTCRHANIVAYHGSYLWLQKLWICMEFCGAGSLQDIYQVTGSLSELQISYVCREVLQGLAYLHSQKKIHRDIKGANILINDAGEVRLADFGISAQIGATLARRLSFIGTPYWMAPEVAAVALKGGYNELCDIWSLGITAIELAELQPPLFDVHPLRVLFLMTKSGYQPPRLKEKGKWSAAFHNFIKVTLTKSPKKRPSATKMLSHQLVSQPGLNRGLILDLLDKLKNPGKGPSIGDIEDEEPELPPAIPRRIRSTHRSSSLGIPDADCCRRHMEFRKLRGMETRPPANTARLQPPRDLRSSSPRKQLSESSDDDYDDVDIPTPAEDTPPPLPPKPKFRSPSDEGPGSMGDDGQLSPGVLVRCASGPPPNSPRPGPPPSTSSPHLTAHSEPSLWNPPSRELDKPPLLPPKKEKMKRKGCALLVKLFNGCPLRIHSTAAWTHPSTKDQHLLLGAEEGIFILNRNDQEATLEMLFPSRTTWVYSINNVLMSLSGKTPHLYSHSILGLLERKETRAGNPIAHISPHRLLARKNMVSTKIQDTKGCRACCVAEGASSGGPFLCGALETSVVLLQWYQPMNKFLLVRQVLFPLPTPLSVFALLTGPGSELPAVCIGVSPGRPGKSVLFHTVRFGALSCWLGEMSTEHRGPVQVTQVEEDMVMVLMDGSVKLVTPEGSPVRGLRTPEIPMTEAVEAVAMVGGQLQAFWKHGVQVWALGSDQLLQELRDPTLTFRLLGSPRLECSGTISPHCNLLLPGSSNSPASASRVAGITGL

As usually defined, the EC50 is the concentration that produces a half-maximal response. A word on the IC50: it is the midpoint of a concentration-inhibition curve. Consider `CSc1c(F)cc2[nH]ncc2c1-c1ccn2nc(NC(=O)C3CC3)cc2c1` [Example 569, N-(5-(6-fluoro-5-(methylthio)-1H-indazol-4-yl)pyrazolo[1,5-a]pyridin-2-yl)cyclopropanecarboxamide], for which the values for the EC50 in assay [1] (setting [3]) and in assay [1] (setting [4]) were 200 to 1000 nM and greater than 1000 nM, respectively. Further, in assay [2], the IC50 was less than 100 nM.
Taken in the same sequence, the figures for `CCN(C)c1c(F)c(Cl)c(-c2ccn3nc(NC(=O)[C@@H]4C[C@@H]4F)cc3c2)c2cn[nH]c12` [Example 564, (1S,2S)-N-(5-(5-chloro-7-(ethyl(methyl)amino)-6-fluoro-1H-indazol-4-yl)pyrazolo[1,5-a]pyridin-2-yl)-2-fluorocyclopropane-1-carboxamide] were 200 to 1000 nM, 200 to 1000 nM and less than 100 nM.
Take `Cc1c(F)c(N(C)CCO)c2[nH]ncc2c1-c1ccn2nc(NC(=O)[C@@H]3C[C@@H]3F)cc2c1` [Example 557, (1S,2S)-2-fluoro-N-(5-(6-fluoro-7-((2-hydroxyethyl)(methyl)amino)-5-methyl-1H-indazol-4-yl)pyrazolo[1,5-a]pyridin-2-yl)cyclopropane-1-carboxamide]: the results for the EC50 in assay [1] (setting [3]) and in assay [1] (setting [4]) were less than 200 nM and 200 to 1000 nM, respectively. Also, the IC50 in assay [2] was less than 100 nM.
`CN(C)c1c(F)c(Cl)c(-c2ccc3nc(NC(=O)[C@@H]4C[C@H]4F)cn3c2)c2cn[nH]c12` [Example 333, (1S,2R)-N-(6-(5-chloro-7-(dimethylamino)-6-fluoro-1H-indazol-4-yl)imidazo[1,2-a]pyridin-2-yl)-2-fluorocyclopropane-1-carboxamide]: the EC50 in assay [1] (setting [3]) and in assay [1] (setting [4]) was 200 to 1000 nM throughout. The IC50 in assay [2] was less than 100 nM.
